Experimental data from PMC4865845, “A human genome-wide loss-of-function screen identifies effective chikungunya antiviral drugs” (Nature Communications, 2016).

Test system: CHIKV
Format: cell-based, chikungunya virus

Compared with “s10856 (sense AAGTTTACGTGAACAAATT; chemistry not given here)”, “s12109 (sense CAGCCCTTGTTCTCATCAA; chemistry not given here)” is higher in Score_si3: -0.27 for the first, 1.16 for the second.

Compared with “s12243 (sense GCTGGGACAAGACACTGTA; chemistry not given here)”, “s12381 (sense AGGCTCAGATCGACCAATA; chemistry not given here)” is lower in Score_si3: 1.87 for the first, 0.71 for the second.

Compared with “s12384 (sense TCGTCCTCTTTAACCCTGA; chemistry not given here)”, “s12471 (sense CTTCTGTACCCATCAGTAA; chemistry not given here)” is higher in Score_si3: 1.24 for the first, 1.63 for the second.

Compared with “s13805 (sense TCACTGTGCTGATCGGGAA; chemistry not given here)”, “s14380 (sense GGACCACGTCAAGACTTGT; chemistry not given here) [reference compound]” is lower in Score_si3: 0.78 for the first, -0.84 for the second.

Compared with “s14706 (sense GCATGATCTAGATCGAGTA; chemistry not given here)”, “s15562 (sense GCTTAGAAATGGACGACGA; chemistry not given here) [reference compound]” is lower in Score_si3: 1.88 for the first, -0.27 for the second.

Compared with “s10857 (sense GAATCCGGTTTGGAATATA; chemistry not given here)”, “s10955 (sense GAGAAGAAGTATTACTTAT; chemistry not given here)” is higher in Score_si4: -0.29 for the first, 0.29 for the second.

Compared with “s11517 (sense GCGAAGTGTTTGTAAATCA; chemistry not given here)”, “s11586 (sense GGATAGTGTTCTTAGCAAT; chemistry not given here)” is lower in Score_si4: 1.19 for the first, 0.13 for the second.

Compared with “s12245 (sense CCATCAGGACCACTATTAA; chemistry not given here)”, “s12452 (sense GGACCAAGATGATCAGAAA; chemistry not given here)” is lower in Score_si4: 0.57 for the first, 0.08 for the second.

Compared with “s12470 (sense GGATGTGGACAACAAAGTA; chemistry not given here)”, “s13807 (sense GCATCTGAAGACTCAGGCA; chemistry not given here)” is lower in Score_si4: 1.56 for the first, -0.26 for the second.

First: s15564 (sense GCTTGAAGCTGAAAAGCGA; chemistry not given here) [reference compound]
Second: s15614 (sense GCAAGTCGTGAAACTATAA; chemistry not given here)
The Score_si4 of the first is higher: 1.62 for the first, 0.64 for the second.

Compared with “s10858 (sense CCCGCTTTATCGAAGGCAA; chemistry not given here)”, “s11587 (sense CAGGTCACATTGTTCCTGA; chemistry not given here)” is higher in Score_si2: 1.05 for the first, 1.27 for the second.

Going from “s11745 (sense CACTCTCTGTAAGCATATA; chemistry not given here)” to “s12099 (sense GCTTGTAGGTGATACACCT; chemistry not given here)”, the Score_si2 falls from 1.42 to 1.09.

Compared with “s12110 (sense CAATCTCTCTTATCCTTGA; chemistry not given here)”, “s12382 (sense GATCCGAGCTAAAATCCCA; chemistry not given here)” is higher in Score_si2: 1.28 for the first, 1.86 for the second.

Going from “s13806 (sense TCATCACCGTGTCCAATCA; chemistry not given here)” to “s14080 (sense GAGTGGTCTTTTCAACACT; chemistry not given here)”, the Score_si2 falls from 1.6 to 1.38.

Compared with “s14674 (sense GTATGAAGGAGGTATCTTT; chemistry not given here)”, “s14705 (sense GCAGTTGAATTATCACAGT; chemistry not given here)” is lower in Score_si2: 2.12 for the first, 1.97 for the second.

First: s10956 (sense CAAGCGGATTTCTACCCTT; chemistry not given here)
Second: s11515 (sense GGATAACACTGTACAAGCT; chemistry not given here)
The Score_si1 of the first is lower: 1.05 for the first, 1.79 for the second.

“s12353 (sense GGCATGTCGGTTACAAGAA; chemistry not given here)” was tested, and the Score_si1 was 1.86.
